Earlier results, collected in patent US11702451B2, “Method for synthesizing amanitins” (Heidelberg Pharma Research GmbH, priority 2017, dated 2023).

Target: DNA-dependent RNA polymerase II (Homo sapiens, UniProt P24928)
Conditions: background statement, no method given; read-out: KD of the complex between amanitin and RNA-polymerase II

amanitin
Kd: 3 nM
